Assay results from the CheMixHub viscosity set.

Assay: xn = mol fraction of the nth substance listed

CNC=O + O
viscosity [mPa·s]
Conditions	298 K	298.15 K	303 K	303.15 K	308.15 K	313.15 K	318.15 K	323.15 K
101 kPa, x1 = 0.0328	1.05	–	0.9456	–	–	–	–	–
101 kPa, x1 = 0.1	–	1.384	–	1.219	1.083	0.9687	0.871	–
101 kPa, x1 = 0.1158	1.305	–	1.176	–	–	–	–	–
101 kPa, x1 = 0.1999	–	1.754	–	1.539	1.363	1.215	1.084	–
101 kPa, x1 = 0.2341	1.573	–	1.425	–	–	–	–	–
101 kPa, x1 = 0.3002	–	1.967	–	1.728	1.532	1.366	1.222	–
101 kPa, x1 = 0.4001	–	–	–	1.805	1.608	1.44	1.3	–
101 kPa, x1 = 0.4163	–	–	1.625	–	–	–	–	–
101 kPa, x1 = 0.4998	–	2.031	–	1.818	1.636	1.472	1.331	–
101 kPa, x1 = 0.6006	–	1.975	–	1.772	1.59	1.437	1.304	–
101 kPa, x1 = 0.6995	–	1.902	–	1.712	1.546	1.401	1.273	–
101 kPa, x1 = 0.7334	1.658	–	1.5	–	–	–	–	–
101 kPa, x1 = 0.8	–	1.836	–	1.658	1.502	1.364	1.243	–
101 kPa, x1 = 0.8997	–	1.781	–	1.609	1.459	1.327	1.21	–
101.33 kPa, x1 = 0.0969	–	–	–	1.216	1.086	0.974	0.8818	0.8012
101.33 kPa, x1 = 0.2015	–	–	–	1.529	1.36	1.219	1.098	0.9948
101.33 kPa, x1 = 0.2996	–	–	–	1.718	1.531	1.373	1.24	1.124
101.33 kPa, x1 = 0.4005	–	–	–	1.792	1.603	1.445	1.308	1.187
101.33 kPa, x1 = 0.4994	–	–	–	1.789	1.61	1.458	1.327	1.211
101.33 kPa, x1 = 0.5995	–	–	–	1.753	1.576	1.443	1.32	1.21
101.33 kPa, x1 = 0.6999	–	–	–	1.693	1.542	1.412	1.296	1.193
101.33 kPa, x1 = 0.7999	–	–	–	1.649	1.509	1.388	1.279	1.182
101.33 kPa, x1 = 0.9001	–	–	–	1.61	1.478	1.361	1.261	1.164
